For 14 molecules, IC50 results are on record in patent US9376425B2, “Heterocyclic compounds as MDM2 inhibitors for the treatment of cancer” (AMGEN INC., priority 2011, dated 2016).

Structures are written as SMILES.

The target of the assay is T1, human MDM2 (GST-hMDM2 1-188), interaction with biotinylated-p53 (1-83) (Homo sapiens, UniProt Q00987).
T1 construct: Amino acid residues 1-188 of human MDM2 were expressed; made in house; host or cells: Escherichia coli
T1 sequence (Q00987 1-188): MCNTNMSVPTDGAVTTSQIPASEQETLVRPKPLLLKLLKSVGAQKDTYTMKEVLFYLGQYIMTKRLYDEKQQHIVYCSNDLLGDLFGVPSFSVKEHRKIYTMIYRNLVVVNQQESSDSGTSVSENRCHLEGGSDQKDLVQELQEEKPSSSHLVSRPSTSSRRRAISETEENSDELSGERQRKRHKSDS
Briefly: improved HTRF assay (HTRF2 assay), inhibition of HDM2-p53 interaction. Conditions: 0.2 nM GST-hMDM2, 0.5 nM biotinylated-p53, 100 mM KF. The class given is binding. The essentials: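 Time-resolved fluorescence (HTRF) read after >4 h equilibration with SA-XLent/anti-GST cryptate/KF detection reagents. Reaction: compound plus GST-hMDM2 for 20 min at room temperature, then E. coli-expressed biotinylated p53 residues 1-83 for 60 min, 2% DMSO final. Inhibition expressed versus nutlin-3.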
Background: TR-FRET usually uses a lanthanide donor and a delayed reading to cut background.
The term IC50 denotes the point on the concentration scale where inhibition reaches its midpoint. The low end stands for inhibition by little substance, the high end for a need for much substance. Consider `CC[C@@H](CS(=O)(=O)C(C)(C)C)N1C(=O)[C@@H](CNC(=O)N(CC)CC)O[C@H](c2cccc(Cl)c2)[C@H]1c1ccc(Cl)cc1` (single isomer, unassigned) [Example 375, 3-(((2R,5R,6R)-4-((S)-1-(tert-Butylsulfonyl)butan-2-yl)-6-(3-chlorophenyl)-5-(4-chlorophenyl)-3-oxomorpholin-2-yl)methyl)-1,1-diethylurea or 3-(((2S,5R,6R)-4-((S)-1-(tert-butylsulfonyl)butan-2-yl)-6-(3-chlorophenyl)-5-(4-chlorophenyl)-3-oxomorpholin-2-yl)methyl)-1,1-diethylurea], for which the IC50 turned out to be 55 nM. In other words, the double-digit nanomolar range.
The same measure for `CC(C)(C#N)S(=O)(=O)C[C@H](C1CC1)N1C(=O)[C@@H](CC(=O)O)O[C@H](c2cccc(Cl)c2)[C@H]1c1ccc(Cl)cc1` (single isomer, unassigned) [Example 290, 2-((2R,5R,6R)-6-(3-Chlorophenyl)-5-(4-chlorophenyl)-4-((S)-2-((2-cyanopropan-2-yl)sulfonyl)-1-cyclopropylethyl)-3-oxomorpholin-2-yl)acetic acid or 2-((2S,5R,6R)-6-(3-chlorophenyl)-5-(4-chlorophenyl)-4-((S)-2-((2-cyanopropan-2-yl)sulfonyl)-1-cyclopropylethyl)-3-oxomorpholin-2-yl)acetic acid]: under 1 nM; for `C[C@@H](CS(=O)(=O)C(C)(C)C)N1C(=O)[C@@H](CC(=O)N2CCOCC2)O[C@H](c2cccc(Cl)c2)[C@H]1c1ccc(Cl)cc1` (single isomer, unassigned) [Example 236, (2R,5R,6R)-4-((S)-1-(tert-butylsulfonyl)propan-2-yl)-6-(3-chlorophenyl)-5-(4-chlorophenyl)-2-(2-morpholino-2-oxoethyl)morpholin-3-one or (2S,5R,6R)-4-((S)-1-(tert-butylsulfonyl)propan-2-yl)-6-(3-chlorophenyl)-5-(4-chlorophenyl)-2-(2-morpholino-2-oxoethyl)morpholin-3-one]: 22 nM.
For the molecule `CC(C)[C@@H](CS(=O)(=O)C(C)(C)C)N1C(=O)[C@@H](CC(=O)O)O[C@H](c2cccc(Cl)c2)[C@H]1c1ccc(Cl)c(F)c1` (single isomer, unassigned) [Example 313], the IC50 is 38 nM.
The same measure for `Cc1n[nH]c(C[C@H]2O[C@H](c3cccc(Cl)c3)[C@@H](c3ccc(Cl)cc3)N([C@H](CN(c3ccccc3F)S(=O)(=O)C3CC3)C3CC3)C2=O)n1` (single isomer, unassigned) [Example 392, N-((S)-2-((2R,3R,6R)-2-(3-Chlorophenyl)-3-(4-chlorophenyl)-6-((3-methyl-1H-1,2,4-triazol-5-yl)methyl)-5-oxomorpholino)-2-cyclopropylethyl)-N-(2-fluorophenyl)cyclopropanesulfonamide or N-((S)-2-((2S,3R,6R)-2-(3-chlorophenyl)-3-(4-chlorophenyl)-6-((3-methyl-1H-1,2,4-triazol-5-yl)methyl)-5-oxomorpholino)-2-cyclopropylethyl)-N-(2-fluorophenyl)cyclopropanesulfonamide]: under 1 nM; for `CC[C@@H](CS(=O)(=O)C(C)(C)C)N1C(=O)[C@@H](CNC(=O)N(CC)CC)O[C@H](c2cccc(Cl)c2)[C@H]1c1ccc(Cl)cc1` (single isomer, unassigned) [Example 376, 3-(((2R,5R,6R)-4-((S)-1-(tert-Butylsulfonyl)butan-2-yl)-6-(3-chlorophenyl)-5-(4-chlorophenyl)-3-oxomorpholin-2-yl)methyl)-1,1-diethylurea or 3-(((2S,5R,6R)-4-((S)-1-(tert-butylsulfonyl)butan-2-yl)-6-(3-chlorophenyl)-5-(4-chlorophenyl)-3-oxomorpholin-2-yl)methyl)-1,1-diethylurea]: 48 nM.
Turning to `O=C(O)C[C@H]1O[C@H](c2cccc(Cl)c2)[C@@H](c2ccc(Cl)c(F)c2)N([C@H](CN(c2ccccc2F)S(=O)(=O)C2CC2)C2CC2)C1=O` (single isomer, unassigned) [Example 314, 2-((2R,5R,6R)-5-(4-Chloro-3-fluorophenyl)-6-(3-chlorophenyl)-4-((S)-1-cyclopropyl-2-(N-(2-fluorophenyl)cyclopropanesulfonamido)ethyl)-3-oxomorpholin-2-yl)acetic acid or 2-((2S,5R,6R)-5-(4-chloro-3-fluorophenyl)-6-(3-chlorophenyl)-4-((S)-1-cyclopropyl-2-(N-(2-fluorophenyl)cyclopropanesulfonamido)ethyl)-3-oxomorpholin-2-yl)acetic acid], the IC50 is under 1 nM.
Consider `NS(=O)(=O)C[C@H]1O[C@H](c2cccc(Cl)c2)[C@@H](c2ccc(Cl)cc2)N([C@H](CN(c2ccccc2F)S(=O)(=O)C2CC2)C2CC2)C1=O` (single isomer, unassigned) [Example 410, N-((S)-2-((2R,3R,6S)-2-(3-Chlorophenyl)-3-(4-chlorophenyl)-5-oxo-6-(sulfamoylmethyl)morpholino)-2-cyclopropylethyl)-N-(2-fluorophenyl)cyclopropanesulfonamide or N-((S)-2-((2S,3R,6S)-2-(3-chlorophenyl)-3-(4-chlorophenyl)-5-oxo-6-(sulfamoylmethyl)morpholino)-2-cyclopropylethyl)-N-(2-fluorophenyl)cyclopropanesulfonamide], for which the half-inhibitory concentration (IC50) is under 1 nM.
Molecule `COc1ccc([C@H]2O[C@H](CC(=O)O)C(=O)N([C@H](CSC(C)(C)C)C3CC3)[C@@H]2c2ccc(Cl)cc2)cc1Cl` (single isomer, unassigned) [Example 328, 2-((2R,5R,6R)-4-((S)-2-(tert-Butylthio)-1-cyclopropylethyl)-6-(3-chloro-4-methoxyphenyl)-5-(4-chlorophenyl)-3-oxomorpholin-2-yl)acetic acid or 2-((2S,5R,6R)-4-((S)-2-(tert-butylthio)-1-cyclopropylethyl)-6-(3-chloro-4-methoxyphenyl)-5-(4-chlorophenyl)-3-oxomorpholin-2-yl)acetic acid] gave an IC50 of 12 nM. In other words, the double-digit nanomolar range.
The molecule `O=C(O)C[C@H]1O[C@H](c2cccc(Cl)c2)[C@@H](c2ccc(Cl)cc2)N([C@H](CS(=O)(=O)N2CCOCC2)C2CC2)C1=O` (single isomer, unassigned) [Example 302, 2-((2R,5R,6R)-6-(3-Chlorophenyl)-5-(4-chlorophenyl)-4-((S)-1-cyclopropyl-2-(morpholinosulfonyl)ethyl)-3-oxomorpholin-2-yl)acetic acid or 2-((2S,5R,6R)-6-(3-chlorophenyl)-5-(4-chlorophenyl)-4-((S)-1-cyclopropyl-2-(morpholinosulfonyl)ethyl)-3-oxomorpholin-2-yl)acetic acid] showed a concentration for half-maximal inhibition (IC50) of under 1 nM.
In the case of `CC(C)(C)S(=O)(=O)C[C@H](C1CC1)N1C(=O)[C@@H](CC(=O)NCC#N)O[C@H](c2cccc(Cl)c2)[C@H]1c1ccc(Cl)cc1` (single isomer, unassigned) [Example 348, 2-((2R,5R,6R)-4-((S)-2-(tert-Butylsulfonyl)-1-cyclopropylethyl)-6-(3-chlorophenyl)-5-(4-chlorophenyl)-3-oxomorpholin-2-yl)-N-(cyanomethyl)acetamide or 2-((2S,5R,6R)-4-((S)-2-(tert-butylsulfonyl)-1-cyclopropylethyl)-6-(3-chlorophenyl)-5-(4-chlorophenyl)-3-oxomorpholin-2-yl)-N-(cyanomethyl)acetamide] it was 5 nM; in that of `O=C(O)C[C@H]1O[C@H](c2cccc(Cl)c2)[C@@H](c2ccc(Cl)cc2)N([C@H](CS(=O)(=O)Nc2ccccc2F)C2CC2)C1=O` (single isomer, unassigned) [Example 294, 2-((2R,5R,6R)-6-(3-Chlorophenyl)-5-(4-chlorophenyl)-4-((S)-1-cyclopropyl-2-(N-(2-fluorophenyl)sulfamoyl)ethyl)-3-oxomorpholin-2-yl)acetic acid or 2-((2S,5R,6R)-6-(3-chlorophenyl)-5-(4-chlorophenyl)-4-((S)-1-cyclopropyl-2-(N-(2-fluorophenyl)sulfamoyl)ethyl)-3-oxomorpholin-2-yl)acetic acid], under 1 nM; in that of `O=C(C[C@H]1O[C@H](c2cccc(Cl)c2)[C@@H](c2ccc(Cl)cc2)N([C@H](CN(c2ccccc2F)S(=O)(=O)C2CC2)C2CC2)C1=O)Nc1ccccn1` (single isomer, unassigned) [Example 369, 2-((2R,5R,6R)-6-(3-Chlorophenyl)-5-(4-chlorophenyl)-4-((S)-1-cyclopropyl-2-(N-(2-fluorophenyl)cyclopropanesulfonamido)ethyl)-3-oxomorpholin-2-yl)-N-(pyridin-2-yl)acetamide or 2-((2S,5R,6R)-6-(3-chlorophenyl)-5-(4-chlorophenyl)-4-((S)-1-cyclopropyl-2-(N-(2-fluorophenyl)cyclopropanesulfonamido)ethyl)-3-oxomorpholin-2-yl)-N-(pyridin-2-yl)acetamide], 8 nM.
Regarding `C=CC[C@@H]1O[C@H](c2cccc(Cl)c2)[C@@H](c2ccc(Cl)cc2)N([C@@H](CC)CN(c2ccccn2)S(=O)(=O)C2CC2)C1=O` (single isomer, unassigned) [Example 178, N-((S)-2-((2S,5R,6R)-2-allyl-6-(3-chlorophenyl)-5-(4-chlorophenyl)-3-oxomorpholino)butyl)-N-(pyridin-2-yl)cyclopropanesulfonamide or N-((S)-2-((2R,5R,6R)-2-allyl-6-(3-chlorophenyl)-5-(4-chlorophenyl)-3-oxomorpholino)butyl)-N-(pyridin-2-yl)cyclopropanesulfonamide], half-maximal inhibition (IC50) required 182 nM.
